Reference: PubChem BioAssay AID1259407 (Chemical Carcinogenesis Research Information System (CCRIS), 2018)
Active and inactive are the calls of the source. The rule behind the calls is not given here.

Test system: CCRIS mutagenicity, Ames/micronucleus/aberration tests
Assay: CCRIS mutagenicity studies
[1] = Test System: AMES SALMONELLA TYPHIMURIUM, Strain/Indicator: TA98, Metabolic Activation: NONE, Method: PREINCUBATION
[2] = Test System: AMES SALMONELLA TYPHIMURIUM, Strain/Indicator: TA100, Metabolic Activation: NONE, Method: PREINCUBATION
[3] = Test System: AMES SALMONELLA TYPHIMURIUM, Strain/Indicator: TA1535, Metabolic Activation: NONE, Method: PREINCUBATION
[4] = Test System: AMES SALMONELLA TYPHIMURIUM, Strain/Indicator: TA98, Metabolic Activation: HAMSTER, LIVER, S-9, AROCLOR 1254 (10%), Method: PREINCUBATION
[5] = Test System: AMES SALMONELLA TYPHIMURIUM, Strain/Indicator: TA98, Metabolic Activation: RAT, LIVER, S-9, AROCLOR 1254 (10%), Method: PREINCUBATION
[6] = Test System: AMES SALMONELLA TYPHIMURIUM, Strain/Indicator: TA100, Metabolic Activation: HAMSTER, LIVER, S-9, AROCLOR 1254 (10%), Method: PREINCUBATION
[7] = Test System: AMES SALMONELLA TYPHIMURIUM, Strain/Indicator: TA100, Metabolic Activation: RAT, LIVER, S-9, AROCLOR 1254 (10%), Method: PREINCUBATION
[8] = Test System: AMES SALMONELLA TYPHIMURIUM, Strain/Indicator: TA1535, Metabolic Activation: HAMSTER, LIVER, S-9, AROCLOR 1254 (10%), Method: PREINCUBATION
[9] = Test System: AMES SALMONELLA TYPHIMURIUM, Strain/Indicator: TA1535, Metabolic Activation: RAT, LIVER, S-9, AROCLOR 1254 (10%), Method: PREINCUBATION
[10] = Test System: AMES SALMONELLA TYPHIMURIUM, Strain/Indicator: TA1537, Metabolic Activation: HAMSTER, LIVER, S-9, AROCLOR 1254 (10%), Method: PREINCUBATION
[11] = Test System: AMES SALMONELLA TYPHIMURIUM, Strain/Indicator: TA1537, Metabolic Activation: NONE, Method: PREINCUBATION
[12] = Test System: AMES SALMONELLA TYPHIMURIUM, Strain/Indicator: TA1537, Metabolic Activation: RAT, LIVER, S-9, AROCLOR 1254 (10%), Method: PREINCUBATION
[13] = Test System: AMES SALMONELLA TYPHIMURIUM, Strain/Indicator: TA100, Metabolic Activation: NONE, Method: STANDARD PLATE
[14] = Test System: AMES SALMONELLA TYPHIMURIUM, Strain/Indicator: TA100, Metabolic Activation: RAT, S-9, AROCLOR, Method: STANDARD PLATE
[15] = Test System: AMES SALMONELLA TYPHIMURIUM, Strain/Indicator: TA98, Metabolic Activation: NONE, Method: STANDARD PLATE
[16] = Test System: AMES SALMONELLA TYPHIMURIUM, Strain/Indicator: TA98, Metabolic Activation: RAT, LIVER, S-9, AROCLOR 1254, Method: STANDARD PLATE
[17] = Test System: AMES SALMONELLA TYPHIMURIUM, Strain/Indicator: TA100, Metabolic Activation: S-9, Method: STANDARD PLATE
[18] = Test System: AMES SALMONELLA TYPHIMURIUM, Strain/Indicator: TA1535, Metabolic Activation: NONE, Method: STANDARD PLATE
[19] = Test System: AMES SALMONELLA TYPHIMURIUM, Strain/Indicator: TA1535, Metabolic Activation: S-9, Method: STANDARD PLATE

CCCCCCCC(=O)Cl
mutagenic call (Test System: AMES SALMONELLA TYPHIMURIUM, Strain/Indicator: TA98, Metabolic Activation: HAMSTER, LIVER, S-9, AROCLOR 1254 (30%), Method: PREINCUBATION): inactive; negative
mutagenic call [1]: inactive; negative
mutagenic call (Test System: AMES SALMONELLA TYPHIMURIUM, Strain/Indicator: TA98, Metabolic Activation: RAT, LIVER, S-9, AROCLOR 1254 (30%), Method: PREINCUBATION): inactive; negative
mutagenic call (Test System: AMES SALMONELLA TYPHIMURIUM, Strain/Indicator: TA100, Metabolic Activation: HAMSTER, LIVER, S-9, AROCLOR 1254 (5%), Method: PREINCUBATION): active; positive
mutagenic call (Test System: AMES SALMONELLA TYPHIMURIUM, Strain/Indicator: TA100, Metabolic Activation: HAMSTER, LIVER, S-9, AROCLOR 1254 (10 OR 30%), Method: PREINCUBATION): inactive; negative
mutagenic call (Test System: AMES SALMONELLA TYPHIMURIUM, Strain/Indicator: TA100, Metabolic Activation: HAMSTER, LIVER, S-9, AROCLOR 1254 (30%), Method: PREINCUBATION): active; positive
mutagenic call [2]: inactive; negative
mutagenic call (Test System: AMES SALMONELLA TYPHIMURIUM, Strain/Indicator: TA100, Metabolic Activation: RAT, LIVER, S-9, AROCLOR 1254 (5 OR 10%), Method: PREINCUBATION): inactive; negative
mutagenic call (Test System: AMES SALMONELLA TYPHIMURIUM, Strain/Indicator: TA100, Metabolic Activation: RAT, LIVER, S-9, AROCLOR 1254 (30%), Method: PREINCUBATION): inactive; negative
mutagenic call (Test System: AMES SALMONELLA TYPHIMURIUM, Strain/Indicator: TA1535, Metabolic Activation: HAMSTER, LIVER, S-9, AROCLOR 1254 (5, 10 OR 30%), Method: PREINCUBATION): inactive; negative
mutagenic call (Test System: AMES SALMONELLA TYPHIMURIUM, Strain/Indicator: TA1535, Metabolic Activation: RAT, LIVER, S-9, AROCLOR 1254 (5, 10 OR 30%), Method: PREINCUBATION): inactive; negative

CCN=[N+]([O-])CC
mutagenic call (Test System: AMES SALMONELLA TYPHIMURIUM, Strain/Indicator: TA1535, Metabolic Activation: HAMSTER, LIVER, S-9, AROCLOR 1254, Method: PREINCUBATION): inactive; negative
mutagenic call [3]: inactive; negative
mutagenic call (Test System: AMES SALMONELLA TYPHIMURIUM, Strain/Indicator: TA1535, Metabolic Activation: RAT, LIVER, S-9, AROCLOR 1254, Method: PREINCUBATION): inactive; negative

C=C(C)C(=O)OCCC
mutagenic call [4]: inactive; negative
mutagenic call [1]: inactive; negative
mutagenic call [5]: inactive; negative
mutagenic call [6]: inactive; negative
mutagenic call [2]: inactive; negative
mutagenic call [7]: inactive; negative
mutagenic call [8]: inactive; negative
mutagenic call [3]: inactive; negative
mutagenic call [9]: inactive; negative
mutagenic call [10]: inactive; negative
mutagenic call [11]: inactive; negative
mutagenic call [12]: inactive; negative

CC(=O)ON(OC(C)C)C(=O)c1ccccc1
mutagenic call [13]: active; positive
mutagenic call [14]: active; positive

CC/C=C/C=C/C=C/C=C/C=C\OC[C@@H](O)CO
mutagenic call [2]: active; positive
mutagenic call (Test System: AMES SALMONELLA TYPHIMURIUM, Strain/Indicator: TA100, Metabolic Activation: RAT, LIVER, S-9, AROCLOR 1254, Method: PREINCUBATION): active; positive

CCOc1ccc([N+](=O)[O-])cc1
mutagenic call [1]: active; positive
mutagenic call (Test System: AMES SALMONELLA TYPHIMURIUM, Strain/Indicator: TA100(NR), Metabolic Activation: RAT, LIVER, S-9, PCB, Method: PREINCUBATION): inactive; negative
mutagenic call [3]: inactive; negative
mutagenic call [11]: inactive; negative
mutagenic call (Test System: AMES SALMONELLA TYPHIMURIUM, Strain/Indicator: TA1538, Metabolic Activation: NONE, Method: PREINCUBATION): inactive; negative
mutagenic call (Test System: AMES SALMONELLA TYPHIMURIUM, Strain/Indicator: YG1026, Metabolic Activation: NONE, Method: PREINCUBATION): active; positive
mutagenic call (Test System: AMES SALMONELLA TYPHIMURIUM, Strain/Indicator: YG1029, Metabolic Activation: NONE, Method: PREINCUBATION): active; positive
mutagenic call (Test System: AMES SALMONELLA TYPHIMURIUM, Strain/Indicator: YG1042, Metabolic Activation: NONE, Method: PREINCUBATION): active; positive

O=[N+]([O-])c1ccc(Sc2ccccc2)cc1
mutagenic call (Test System: AMES SALMONELLA TYPHIMURIUM, Strain/Indicator: TA98(1,8-DNP6), Metabolic Activation: NONE, Method: STANDARD PLATE): active; positive
mutagenic call (Test System: AMES SALMONELLA TYPHIMURIUM, Strain/Indicator: TA98(NR), Metabolic Activation: NONE, Method: STANDARD PLATE): inactive; negative
mutagenic call [15]: active; positive
mutagenic call [16]: active; positive

O=C(O[C@@H]1Cc2c(O)cc(O)cc2O[C@@H]1c1cc(O)c(O)c(O)c1)c1cc(O)c(O)c(O)c1
mutagenic call (Test System: Ames Salmonella typhimurium, Strain/Indicator: TA102, Metabolic Activation: None, Method: Preincubation): inactive; negative
mutagenic call (Test System: Ames Salmonella typhimurium, Strain/Indicator: TA102, Metabolic Activation: Rat, Liver, S-9, Aroclor 1254 in 0.154 M KCl, Method: Preincubation): inactive; negative

CCCCCNc1snc2ccccc12
mutagenic call [15]: inactive; negative
mutagenic call (Test System: AMES SALMONELLA TYPHIMURIUM, Strain/Indicator: TA98, Metabolic Activation: S-9, Method: STANDARD PLATE): inactive; negative
mutagenic call [13]: inactive; negative
mutagenic call [17]: inactive; negative
mutagenic call [18]: inactive; negative
mutagenic call [19]: inactive; negative
mutagenic call (Test System: AMES SALMONELLA TYPHIMURIUM, Strain/Indicator: TA1537, Metabolic Activation: NONE, Method: STANDARD PLATE): inactive; negative
mutagenic call (Test System: AMES SALMONELLA TYPHIMURIUM, Strain/Indicator: TA1537, Metabolic Activation: S-9, Method: STANDARD PLATE): inactive; negative

CC(=O)OCCCCCCCCONC(=O)c1ccccc1
mutagenic call [15]: active; positive
mutagenic call [13]: active; positive
mutagenic call [14]: inactive; negative

CCOC(=O)c1ccccc1C(=O)OCC
mutagenic call [4]: inactive; negative
mutagenic call [1]: inactive; negative
mutagenic call [5]: inactive; negative
mutagenic call [6]: inactive; negative
mutagenic call [2]: inactive; negative
mutagenic call [13]: active; positive
mutagenic call [7]: inactive; negative
mutagenic call [17]: inactive; negative
mutagenic call [8]: inactive; negative
mutagenic call [3]: inactive; negative
mutagenic call [18]: active; positive
mutagenic call [9]: inactive; negative
mutagenic call [19]: inactive; negative
mutagenic call [10]: inactive; negative
mutagenic call [11]: inactive; negative
mutagenic call [12]: inactive; negative

CC(=O)[C@]1(O)Cc2c(O)c3c(c(O)c2[C@@H](O)C1)C(=O)c1c(O)cccc1C3=O
mutagenic call [15]: active; positive
mutagenic call [16]: active; positive
mutagenic call [13]: inactive; negative
mutagenic call (Test System: AMES SALMONELLA TYPHIMURIUM, Strain/Indicator: TA1538, Metabolic Activation: NONE, Method: STANDARD PLATE): inactive; negative
